Measurements as given in patent US6329363A, “Cephalosporin antibiotics” (Eli Lilly and Company, priority 1998, dated 2001).
≈ marks a conversion by molar mass, not a printed value.

Legend:
[1] = test system: S.aureus ATCC 29213; assay: MIC, in vitro activity vs. S.aureus ATCC 29213; assay type: cell-based, Staphylococcus aureus; parameters: unit not given beside the values; conditions: Incubated at 37° C. overnight
Experimental: (§1) Table 2 summarizes the minimal inhibitory concentrations (MIC's) at which illustrative formula I compounds and cephalothin inhibit certain microorganisms associated with mastitis, such as Staphylococcus aureus 10092 (Newbould strain).
(§2) ^a Incubated at 37° C. overnight

[2] = test system: S.aureus 174 C; assay: MIC, in vitro activity vs. S.aureus 174 C; assay type: cell-based, Staphylococcus aureus; parameters: unit not given beside the values; conditions: Incubated at 37° C. overnight
Experimental: as §1, §2

[3] = test system: Staphylococcus aureus 10092 (Newbould strain); assay: MIC, in vitro activity vs. S.aureus 10092; assay type: cell-based; parameters: unit not given beside the values; conditions: Incubated at 37° C. overnight
Experimental: as §1, §2

[4] = test system: S.aureus F1C; assay: MIC, in vitro activity vs. S.aureus F1C; assay type: cell-based, Staphylococcus aureus; parameters: unit not given beside the values; conditions: Incubated at 37° C. overnight
Experimental: as §1, §2

[5] = test system: Streptococcus uberis 150 L; assay: MIC, in vitro activity vs. Streptococcus uberis 150 L; assay type: cell-based; parameters: unit not given beside the values; conditions: Incubated at 37° C. overnight
Experimental: as §1, §2

[6] = test system: Streptococcus uberis 166 L; assay: MIC, in vitro activity vs. Streptococcus uberis 166 L; assay type: cell-based; parameters: unit not given beside the values; conditions: Incubated at 37° C. overnight
Experimental: as §1, §2

[7] = test system: Streptococcus agalactiae; assay: MIC, in vitro activity vs. Streptococcus agalactiae; assay type: cell-based; parameters: unit not given here; conditions: Incubated at 37° C. overnight
Experimental: as §1, §2

[8] = test system: Strepcococcus dysgalactiae; assay: MIC, in vitro activity vs. Streptococcus dysgalactiae; assay type: cell-based; parameters: unit not given here; conditions: Incubated at 37° C. overnight
Experimental: as §1, §2

[9] = test system: Staphylococcus aureus 10092 (Newbould); assay: Efficacy in induced Staphylococcus aureus mastitis model in lactating goats; assay type: in vivo; conditions: 8 halves per compound, 2 consecutive milkings 12 hours apart, approximately 25 mg/5 mL dose in peanut oil, from 36 hours post-challenge
Description: Sixteen lactating goats were selected based on the absence of Staphylococcus aureus in pre-challenge milk cultures. Maintenance ration was provided to the animals throughout the study. The goats were milked twice each day using a portable goat milker.
Milk samples were collected during the morning milking. One day prior to challenge, milk culture samples were collected from each half of the test animals to determine if there was a pre-existing infection. Additionally, a sample was collected from each half for Somatic Cell Count (SCC) determination. A milk culture sample and a sample for SCC were collected from each half 24 hours post-challenge and on Days +4 to +6, +8, +11, +13, and +15.
Udder scoring was performed during each milking wing table:
General health observations and body temperature were recorded once a day following milking during the challenge and treatment periods.
Milk samples were submitted for analysis for SCC using an electronic somatic cell counting system.
Milk culture samples were assayed for bacterial culture by plating 1.0 mL and 0.1 mL of the milk sample directly onto duplicate blood agar plates. Additionally, dilutions 10^-1 of the milk sample were plated. Plates were incubated overnight at 37° C.
Staphylococcus aureus 10092 (Newbould) was used as the challenge strain. The challenge culture was grown in Tryptic Soy Broth (TSB) from a lyovial stock overnight (16 hours) at 37° C. TSB (100 mL) was inoculated with 1 mL of the overnight culture and incubated at 37° C. with shaking for 4 hours. The culture was centrifuged at 9000 rpm for 10 minutes at 10° C.; supernatant was removed and the pellet was resuspended in phosphate buffered saline (PBS). Optimum O.D. reading at 650 nm was approximately 0.035. A 10-fold dilution series was prepared with saline to determine the CFU/mL, plating 10^-5, 10^-6, and 10^-7 dilutions onto duplicate blood agar plates. The 10^-7 dilution (approximately 10 CFU/mL) was used for the challenge material, yielding a challenge of 50 CFU/half with a 5-mL infusion.
Sixteen goats were used for the trial. During a one day pre-challenge period, milk samples were collected and temperatures were taken during the morning milking. Milk/udder evaluations were documented during the morning and afternoon milkings.
Staphylococcus aureus 10092 was infused into both halves in each of the goats. The goats were challenged following the morning milking and milked in the afternoon on the day of challenge. The challenge inoculum volume was 5 mL/half containing approximately 50 CFU S. aureus.
For the 24 hr post-challenge period milk samples were collected during the morning milking, and milk/udder evaluations made during the morning and afternoon milking.
Treatment was started at 36 hours post-challenge. Milk samples were collected for culture and SCC 24 hours post-challenge, prior to the morning milking, and the treatment period started following the afternoon milking.
Eight halves (4 goats) each were treated for 2 consecutive milkings 12 hours apart, following milking. Each designated compound was formulated in peanut oil with […] of compound per 5 g of formulation to give approximately 25 mg/5 mL dose.
Following treatment, the goats were milked and observed for 15 days. Milk samples were collected on Days +4 to +6, +8, +11, +13, and +15 to determine if the infection had cleared.
Establishment of mastitis was determined by bacterial culturing, severity of udder scoring, somatic cell count results, and body temperature.
On Days +2 to +6, milk samples were collected for a calorimetric assay to determine whether the antibiotic was still present in the milk.

[10] = test system: Mastitis in Cows; assay: Efficacy in mastitis in lactating cows; assay type: in vivo; conditions: three trials, 450 mmoles/quarter/dose for two doses
Experimental: Compound 1 was administered to lactating cows in three trials using methods analogous to those used in the goat model described in Example 13. A total of 43 quarters were treated with Compound 1, and 36 quarters were treated with cephapirin (Cefa-Lak). Both compounds were administered at 450 mmoles/quarter/dose for two doses. Compound 1 effectively treated 27 out of 43 quarters for an overall cure rate of 63%, whereas cephapirin effectively treated 18 out of 36 quarters for an overall cure rate of only 50%.

[11] = test system: pasteurella multocida 108E (bovine); assay: MIC against Gram-negative organisms: pasteurella multocida 108E (bovine); assay type: cell-based; conditions: Incubated at 37° C. overnight; unit assumed
Experimental: (§3) The formula I compounds are also active against certain Gram-negative species.
as §2

[12] = test system: pasteurella multocida ATCC 12945; assay: MIC against Gram-negative organisms: pasteurella multocida ATCC 12945; assay type: cell-based; conditions: Incubated at 37° C. overnight; unit assumed
Experimental: as §3, §2

[13] = test system: pasteurella multocida 1051 (swine); assay: MIC against Gram-negative organisms: pasteurella multocida 1051 (swine); assay type: cell-based; conditions: Incubated at 37° C. overnight; unit assumed
Experimental: as §3, §2

[14] = test system: pasteurella multocida 10,102 (bovine); assay: MIC against Gram-negative organisms: pasteurella multocida 10,102 (bovine); assay type: cell-based; conditions: Incubated at 37° C. overnight; unit assumed
Experimental: as §3, §2

[15] = test system: Pasteurella haemolytica 114F (bovine); assay: MIC against Gram-negative organisms: Pasteurella haemolytica 114F (bovine); assay type: cell-based; conditions: Incubated at 37° C. overnight; unit assumed
Experimental: as §3, §2

[16] = test system: Pasteurella haemolytica 128K (bovine); assay: MIC against Gram-negative organisms: Pasteurella haemolytica 128K (bovine); assay type: cell-based; conditions: Incubated at 37° C. overnight; unit assumed
Experimental: as §3, §2

[17] = test system: Pasteurella haemolytica 129R (bovine); assay: MIC against Gram-negative organisms: Pasteurella haemolytica 129R (bovine); assay type: cell-based; conditions: Incubated at 37° C. overnight; unit assumed
Experimental: as §3, §2

[18] = test system: Salmonella typhimurium; assay: MIC against Gram-negative organisms: Salmonella typhimurium; assay type: cell-based; conditions: Incubated at 37° C. overnight; unit assumed
Experimental: as §3, §2

[19] = test system: Escherichia coli; assay: MIC against Gram-negative organisms: Escherichia coli; assay type: cell-based; conditions: Incubated at 37° C. overnight; unit assumed
Experimental: as §3, §2

SMILES	MIC vs. S.aureus ATCC 29213 [1]	MIC vs. S.aureus 174 C [2]	MIC vs. S.aureus 10092 [3]	MIC vs. S.aureus F1C [4]	MIC vs. Streptococcus uberis 150 L [5]	MIC vs. Streptococcus uberis 166 L [6]	MIC vs. Streptococcus agalactiae [7]	MIC vs. Strepcococcus dysgalactiae [8]	% Bacteriologic Cures [9]	overall cure rate [10]	quarters effectively treated [10]	MIC, pasteurella multocida 108E (bovine) [11]	MIC, pasteurella multocida ATCC 12945 [12]	MIC, pasteurella multocida 1051 (swine) [13]	MIC, pasteurella multocida 10,102 (bovine) [14]	MIC, Pasteurella haemolytica 114F (bovine) [15]	MIC, Pasteurella haemolytica 128K (bovine) [16]	MIC, Pasteurella haemolytica 129R (bovine) [17]	MIC, Salmonella typhimurium [18]	MIC, Escherichia coli [19]
Cc1nnc(SCC2=C(C(=O)O)N3C(=O)[C@@H](NC(=O)COc4c(F)cc(F)cc4F)[C@H]3SC2)s1 [Compound 9]	0.125	0.0625	0.125	0.125	0.0625	0.0625	0.0312	0.125	83%											
CC(=O)OCC1=C(C(=O)O)N2C(=O)[C@@H](NC(=O)CSc3ccncc3)[C@H]2SC1 [cephapirin, reference compound]										50%	18 out of 36									
Cc1nnc(SCC2=C(C(=O)O)N3C(=O)[C@@H](NC(=O)COc4ccc(F)cc4)[C@H]3SC2)s1 [Compound 8]	0.312	0.0312	0.0312	0.0312	0.0312	0.0312	0.0312	0.0312	100%											
Cc1nnc(SCC2=C(C(=O)O)N3C(=O)[C@@H](NC(=O)COc4c(F)c(F)c(F)c(F)c4F)[C@H]3SC2)s1 [Compound 1]	0.25	0.25	0.25	0.5	0.25	0.25	0.25	0.125	71%	63%	27 out of 43	0.25 µg/mL (≈ 0.44 µM)	0.25 µg/mL (≈ 0.44 µM)	0.25 µg/mL (≈ 0.44 µM)	0.25 µg/mL (≈ 0.44 µM)	8 µg/mL (≈ 14.1 µM)	4 µg/mL (≈ 7.04 µM)	4 µg/mL (≈ 7.04 µM)	≤ 128 µg/mL	≤ 128 µg/mL
Cc1nnc(SCC2=C(C(=O)O)N3C(=O)[C@@H](NC(=O)COc4ccc(OC(F)(F)F)cc4)[C@H]3SC2)s1 [Compound 7]	0.312	0.312	0.312	0.0625	0.0156	0.0078	0.0312	≤ 0.0078	100%											
Cc1nnc(SCC2=C(C(=O)O)N3C(=O)[C@@H](NC(=O)COc4cc(F)cc(F)c4)[C@H]3SC2)s1 [Compound 10]	0.0312	0.0312	0.0312	0.0312	0.0312	0.0156	0.0156	0.0312	33%											
